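1) Cells in 96-well plates. 2) Compound, 48 h, 5 concentrations. 3) Linear interpolation between surrounding doses. 4) Unreached endpoint = highest concentration. GI50 = concentration required for 50% inhibition of growth.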 Active and inactive are the calls of the source. Cut-off read from the data, not from the text of the source: active = GI50 up to about 1.1 µM and inactive = higher.
Key:
Assay in all cases: inhibition of tumour cell growth, NCI panel, 48 h
NCI-H226 = tested on: NCI-H226
ACHN = tested on: ACHN
SK-MEL-28 = tested on: SK-MEL-28
SNB-19 = tested on: SNB-19
HCC 2998 = tested on: HCC 2998
OVCAR-5 = tested on: OVCAR-5
CCRF-CEM = tested on: CCRF-CEM
NCI-H460 = tested on: NCI-H460
SK-OV-3 = tested on: SK-OV-3
K562 = tested on: K562
COLO 205 = tested on: COLO 205
OVCAR-8 = tested on: OVCAR-8
SF-539 = tested on: SF-539
MOLT-4 = tested on: MOLT-4
EKVX = tested on: EKVX
TK-10 = tested on: TK-10
UO-31 = tested on: UO-31
OVCAR-3 = tested on: OVCAR-3
SK-MEL-2 = tested on: SK-MEL-2
HOP-62 = tested on: HOP-62

Measured: GI50

CCOC(=O)CC(NC(=O)c1ccc(/N=N/N(C)C)cc1)C(=O)OCC (stereo not given)
inactive: NCI-H226 > 100 µM | ACHN > 100 µM | SK-MEL-28 > 100 µM | SNB-19 > 100 µM | HCC 2998 > 100 µM | OVCAR-5 > 100 µM | CCRF-CEM > 100 µM | NCI-H460 > 100 µM | SK-OV-3 > 100 µM | K562 > 100 µM | COLO 205 > 100 µM | OVCAR-8 > 100 µM | SF-539 > 100 µM | MOLT-4 > 100 µM | EKVX > 100 µM | TK-10 > 100 µM | UO-31 > 100 µM | OVCAR-3 > 100 µM | SK-MEL-2 > 100 µM | HOP-62 > 100 µM

Cc1ccc([N+](=O)[O-])cc1S(=O)(=O)Nc1ccc(C2=NNC(c3cccs3)C2)cc1 (stereo not given)
inactive: NCI-H226 49.7 µM | ACHN 20.7 µM | SK-MEL-28 48.5 µM | SNB-19 28.8 µM | HCC 2998 30.8 µM | OVCAR-5 58.9 µM | CCRF-CEM 20.2 µM | NCI-H460 25.4 µM | SK-OV-3 20.7 µM | K562 17.4 µM | COLO 205 6.87 µM | OVCAR-8 54.2 µM | SF-539 48.1 µM | MOLT-4 13.7 µM | EKVX 18.8 µM | UO-31 5.32 µM | OVCAR-3 12.6 µM | SK-MEL-2 33.7 µM | HOP-62 24.3 µM

N#CC(=N)c1ncn(-c2ccccc2N)c1N
inactive: NCI-H226 > 100 µM | ACHN > 100 µM | SK-MEL-28 > 100 µM | SNB-19 > 100 µM | HCC 2998 > 100 µM | OVCAR-5 > 100 µM | CCRF-CEM > 100 µM | NCI-H460 > 100 µM | SK-OV-3 > 100 µM | K562 > 100 µM | COLO 205 > 100 µM | OVCAR-8 > 100 µM | SF-539 > 100 µM | MOLT-4 > 100 µM | EKVX > 100 µM | TK-10 > 100 µM | UO-31 > 100 µM | OVCAR-3 > 100 µM | SK-MEL-2 > 100 µM | HOP-62 > 100 µM

CCOC(=O)CNC(=O)C(CCC(=O)N(C)O)NC(=O)CCC(N)C(=O)O (stereo not given)
inactive: NCI-H226 > 100 µM | ACHN > 100 µM | SK-MEL-28 > 100 µM | SNB-19 > 100 µM | HCC 2998 > 100 µM | OVCAR-5 > 100 µM | CCRF-CEM > 100 µM | NCI-H460 > 100 µM | SK-OV-3 > 100 µM | K562 > 100 µM | COLO 205 > 100 µM | OVCAR-8 > 100 µM | SF-539 > 100 µM | MOLT-4 > 100 µM | EKVX > 100 µM | TK-10 > 100 µM | UO-31 > 100 µM | OVCAR-3 > 100 µM | SK-MEL-2 > 100 µM | HOP-62 > 100 µM

COc1ccc([C@H]2C=[N+]([O-])O[C@H](OC3CCCC3)[C@@H]2OC(C)=O)cc1OC
inactive: NCI-H226 47.6 µM | ACHN 22.2 µM | SK-MEL-28 20.8 µM | SNB-19 > 100 µM | HCC 2998 13.2 µM | NCI-H460 43.9 µM | SK-OV-3 > 100 µM | K562 39.3 µM | COLO 205 15.9 µM | OVCAR-8 20.7 µM | SF-539 16.4 µM | MOLT-4 32.6 µM | EKVX 22.3 µM | TK-10 23.1 µM | UO-31 18.7 µM | OVCAR-3 26 µM | SK-MEL-2 69.3 µM | HOP-62 72.1 µM
active: CCRF-CEM 0.098 µM

O=C(NNC(=S)NCc1ccccc1)C12CC3CC(CC(C3)C1)C2
inactive: NCI-H226 > 100 µM | ACHN 54.7 µM | SK-MEL-28 67.6 µM | SNB-19 > 100 µM | HCC 2998 69.8 µM | OVCAR-5 > 100 µM | CCRF-CEM 24.3 µM | NCI-H460 36.3 µM | SK-OV-3 > 100 µM | K562 55.5 µM | COLO 205 20.4 µM | OVCAR-8 > 100 µM | SF-539 > 100 µM | MOLT-4 19.1 µM | TK-10 > 100 µM | UO-31 50.1 µM | OVCAR-3 54.6 µM | SK-MEL-2 99.1 µM | HOP-62 75.2 µM

COc1ccc(N2C(=O)C3C=CC(n4[nH]c(=O)n(Cc5ccccc5)c4=O)CC3C2=O)cc1 (stereo not given)
inactive: NCI-H226 > 100 µM | ACHN > 100 µM | SK-MEL-28 > 100 µM | SNB-19 > 100 µM | HCC 2998 > 100 µM | OVCAR-5 > 100 µM | CCRF-CEM > 100 µM | NCI-H460 > 100 µM | SK-OV-3 > 100 µM | K562 > 100 µM | COLO 205 > 100 µM | OVCAR-8 > 100 µM | SF-539 > 100 µM | MOLT-4 > 100 µM | EKVX > 100 µM | TK-10 > 100 µM | UO-31 > 100 µM | OVCAR-3 > 100 µM | SK-MEL-2 > 100 µM | HOP-62 > 100 µM

Cc1c(Cl)cccc1NC(=O)/C=C/c1ccccc1
inactive: NCI-H226 60.1 µM | ACHN 89.5 µM | SK-MEL-28 88.5 µM | SNB-19 45.6 µM | HCC 2998 > 100 µM | OVCAR-5 > 100 µM | CCRF-CEM > 100 µM | NCI-H460 > 100 µM | SK-OV-3 > 100 µM | K562 > 100 µM | COLO 205 > 100 µM | OVCAR-8 38 µM | SF-539 43 µM | MOLT-4 > 100 µM | EKVX 55.8 µM | TK-10 > 100 µM | OVCAR-3 > 100 µM | SK-MEL-2 > 100 µM | HOP-62 > 100 µM

Cc1cc2c(C(C)C)c(O)c(O)c(/C=N/c3ccccc3)c2c(O)c1-c1c(C)cc2c(C(C)C)c(O)c(O)c(/C=N/c3ccccc3)c2c1O
inactive: NCI-H226 > 100 µM | ACHN > 100 µM | SK-MEL-28 > 100 µM | SNB-19 > 100 µM | HCC 2998 > 100 µM | OVCAR-5 > 100 µM | CCRF-CEM > 100 µM | NCI-H460 > 100 µM | SK-OV-3 > 100 µM | K562 > 100 µM | COLO 205 > 100 µM | OVCAR-8 > 100 µM | SF-539 > 100 µM | MOLT-4 > 100 µM | EKVX > 100 µM | TK-10 > 100 µM | UO-31 > 100 µM | OVCAR-3 > 100 µM | SK-MEL-2 > 100 µM | HOP-62 > 100 µM

COc1ccc2c(C)cc(N/N=C/c3sccc3C)nc2c1
inactive: NCI-H226 10 µM | ACHN 21.7 µM | SK-MEL-28 14.8 µM | SNB-19 21.7 µM | HCC 2998 12.6 µM | OVCAR-5 13.5 µM | CCRF-CEM 39.8 µM | SK-OV-3 17.1 µM | COLO 205 3.91 µM | OVCAR-8 13.4 µM | SF-539 14.3 µM | MOLT-4 13.5 µM | EKVX > 10 µM | TK-10 17.1 µM | UO-31 17.1 µM | OVCAR-3 2.99 µM | SK-MEL-2 15.6 µM | HOP-62 15.2 µM

CO[C@@H]1O[C@H](C(=O)c2ccccc2)[C@H]2OC(C)(C)O[C@@H]12
inactive: NCI-H226 > 100 µM | SNB-19 > 100 µM | HCC 2998 > 100 µM | OVCAR-5 > 100 µM | CCRF-CEM 49.7 µM | NCI-H460 38.1 µM | SK-OV-3 > 100 µM | K562 > 100 µM | COLO 205 > 100 µM | OVCAR-8 > 100 µM | SF-539 > 100 µM | MOLT-4 > 100 µM | EKVX 86.5 µM | TK-10 > 100 µM | UO-31 > 100 µM | OVCAR-3 > 100 µM | SK-MEL-2 > 100 µM | HOP-62 > 100 µM

CN(C)CCSc1nccc(-c2ccc(-c3ccnc(SCCN(C)C)n3)s2)n1
inactive: NCI-H226 12.9 µM | SK-MEL-28 19.1 µM | SNB-19 11.1 µM | HCC 2998 6.08 µM | OVCAR-5 9.1 µM | CCRF-CEM 1.43 µM | NCI-H460 3.01 µM | SK-OV-3 19.1 µM | K562 6.08 µM | COLO 205 9.4 µM | OVCAR-8 6.1 µM | SF-539 6.87 µM | EKVX 18.2 µM | UO-31 4.94 µM | OVCAR-3 13.4 µM | SK-MEL-2 13.6 µM | HOP-62 15.9 µM
active: MOLT-4 0.76 µM

COc1nc(N)nc2nc[nH]c12
inactive: NCI-H226 318 µM | ACHN 328 µM | SK-MEL-28 > 419 µM | SNB-19 > 500 µM | HCC 2998 > 500 µM | OVCAR-5 345 µM | CCRF-CEM 331 µM | NCI-H460 430 µM | SK-OV-3 129 µM | K562 > 500 µM | COLO 205 393 µM | OVCAR-8 > 500 µM | SF-539 495 µM | MOLT-4 474 µM | EKVX > 387 µM | TK-10 242 µM | UO-31 239 µM | OVCAR-3 497 µM | SK-MEL-2 460 µM | HOP-62 172 µM

Reference: ChEMBL document CHEMBL1201862, “PubChem BioAssay data set” (2004)
